The source of these data is US20010001101A1, “Phenanthroline derivatives” (Zeneca Limited, priority 1997, published 2001).

The subject of data set [1] is balloon injured carotid arteries. The data set is described as follows: rat restenosis model (balloon carotid artery injury). It counts as in vivo. Conditions: 50 mg/kg oral gavage twice daily day 0-14; day 14. The text has this: (§1) (f) Various in vivo animal models to determine the applicability of utilizing the compounds of the present invention to treat fibrotic disorders specific to certain cell types or organs. For example, a cardiac fibrosis model in rats, as generally described in Kondo et al., Cardiovascu. Res. 21:248-254 (1987), and Benjamin et al., Circulation Res. 65(3):657-670 (1989), may be used to measure the effectiveness of the compounds of the present invention to inhibit cardiac fibrosis, as well as provide evidence of the regeneration of cardiac cells upon inhibition of fibrotic cell proliferation. Similarly, the left carotid artery injury model, as described generally in Clowes et al., Lab Invest. 49:327-33 (1983), Muller et al., Am. Col. Cardio. 19(2):418 (1992), and Jackson, Trends Cardiovasc. Med. 4:122-130 (1994), may be used to determine the effectiveness of the compounds of the instant invention in vascular remodeling. […]
The effectiveness of Compound 12 in vascular remodeling, as determined in a rat restenosis model, was determined by using a left carotid artery injury rat model, as generally described above. […]

Another data set concerns dermal incisional wound. Kind of data set: dermal wound healing, rat incisional model. It counts as in vivo. Conditions: compared to control. The method, then:
FIG. 6 illustrates the tensile strength on dermal incisional wound on day 7 after oral treatment of Compound 3 and Compound 12.
FIG. 7 illustrates the tensile strength of incisional wound after local injections of Compound 12.
(§2) The effectiveness of the compounds in dermal wound healing was tested using two wound healing models—rat punch model and rat incisional model—as described above.

Data set [2] has as its system kidney fibrosis after Adriamycin injection. The data set is described as follows: kidney fibrosis rat model (Adriamycin). It counts as in vivo. The text has this: (f) Various in vivo animal models to determine the applicability of utilizing the compounds of the present invention to treat fibrotic disorders specific to certain cell types or organs. For example, a cardiac fibrosis model in rats, as generally described in Kondo et al., Cardiovascu. Res. 21:248-254 (1987), and Benjamin et al., Circulation Res. 65(3):657-670 (1989), may be used to measure the effectiveness of the compounds of the present invention to inhibit cardiac fibrosis, as well as provide evidence of the regeneration of cardiac cells upon inhibition of fibrotic cell proliferation. Similarly, the left carotid artery injury model, as described generally in Clowes et al., Lab Invest. 49:327-33 (1983), Muller et al., Am. Col. Cardio. 19(2):418 (1992), and Jackson, Trends Cardiovasc. Med. 4:122-130 (1994), may be used to determine the effectiveness of the compounds of the instant invention in vascular remodeling. Other models, such as in vivo brain injury models (see e.g., Berry et al., Acto Neurochrurgica, Suppl., 32:31-53 (1993), Logan et al., Brain Research 587:216-255 (1992)), in vivo kidney fibrosis models (see e.g., DiDonato et al., Nephron 76(2):192-200 (1997), in vivo post-surgical abdominal adhesions model (see e.g., Cohen et al., J. Trauma 30(12):S149-154 (1990), Stein & Keiser, J. Surg. Res. 11:277 (1971), Diegelman et al., J. Surg. Res. 19:239-43 (1975)) may be used to determine the effectiveness of the compounds of the instant invention to treat fibrotic disorders related to the brain, kidney, abdomen and dermis, as well as provide information related to the treatment of other major organs.
The effectiveness of the compounds of the instant invention to treat kidney fibrosis was determined using a kidney fibrosis rat model, as generally described above. More specifically, male SD rats weighing approximately 200-225 g each were injected intravenously with Adriamycin (Pharmacia, MI) on day 1 and again on day 15. The Adriamycin was dissolved in 0.5 ml sterile physiologic saline and infused slowly into the tail vein to ensure complete delivery and to avoid perivascular tissue destruction of the drug.
Three treatment groups were established following Adriamycin injections. The rats were randomly assigned to receive a twice daily gavage of Compound 12 or control (1% CMC). Five animals from each group were sacrificed on week 6, 8 or 12.

Data set [3] deals with granulation tissue in wound chamber. The data set is described as follows: in vivo wound chamber model. Set-up: species or system rat. How it is done:
(e) An in vivo wound chamber model involving the measurement of histological changes in granulation tissue. The test compounds were tested in rats according to the procedures generally described in Schilling et al., Surgery 46(4):702-710 (1959), Hunt et al., Am. J. Surgery 114:302-307 (1967), and Grotendorst et al., J. Clin Inves. 76:2323-2329 (1985). More specifically, stainless wire mesh cylinders were implanted subcutaneously under the back skin of rats (two chambers per animal). The compounds of the present invention were then dissolved in DMSO and injected into each chamber on a daily basis at various concentrations from either day 0-14 or day 7-14. On day 14, the chambers were collected and the granulation tissues contained within the chambers were collected for biochemical (collagen content) or histological evaluation.
Following the in vivo wound chamber model described above, fourteen of the claimed compounds tested to determine the effectiveness of the claimed compounds in inhibiting collagen deposition in the wound chamber.

In another data set the test system is dermal punch wound. Kind of data set: dermal wound healing, rat punch model. The note with it: compared to control. The format is in vivo. How it is done: FIG. 5 illustrates wound area after treatment of Compound 3 in the dermal punch model.
as §2

Data set [4] has as its system isoproterenol-induced myocardial fibrosis. Kind of data set: rat isoproterenol-induced myocardial fibrosis model. The format is in vivo. Conditions: left ventricular function at week 6; 50 mg/kg oral gavage twice daily day 4 to day 11.
Text: as §1, with “Col.” for “Col. Cardio. 19(2):418 (1992), and Jackson, Trends Cardiovasc. Med. 4:122-130 (1994), may be used to determine the effectiveness of the compounds of the instant invention in vascular remodeling.”
The effectiveness of one of the compounds of the present invention to inhibit cardiac fibrosis and permit the regeneration of cardiac cells was tested in the cardiac fibrosis model generally described above. […] The compound was administered after suspension in 1% CMC at 50 mg/kg by oral gavage twice daily from day 4 to day 11 and histological data was evaluated on day 11 by general histology (H&E and trichrome) and immunohistochemical staining for proliferating cell nuclear antigen (PCNA). Cardiac function (left ventricular function) was measured by inserting a catheter into the left ventricle for measurement of relaxation and contraction pressure on week 6.

Data set [5] relates to scar tissue in the brain following injury. Kind of data set: brain injury model. It counts as in vivo, rat. Conditions: oral gavage twice daily day 0 to 14, day 14.
Text: as §1

For the compound `O=C(O)C1C=Nc2c(ccc3cccnc23)C1=O` (centres unmarked) [Compound 12, 3-carboxy-4-oxo-3,4-dihydro-1,10-phenanthroline], in data set [1], the “development of neointimal formation” value is reported as “significantly reduce the development of neointimal formation”. Besides, the “tensile strength of wound” value in the data set with dermal incisional wound is “reduced tensil strength”. Further, the “development of renal hypertension” value in data set [2] (twice daily gavage, versus control) is on record as “blocked the development of renal hypertension”. Further, in data set [2] (twice daily gavage, versus control (1% CMC)), the “development of kidney fibrosis (histology)” value is reported as “prevented the development of kidney fibrosis”. Further, in data set [2] (week 12), the Cardiac function result was “improved”; the “long term toxicity, as measured by mean body weight and bone density” value was “not material”. The response vs control in vivo at 0.05 mg in data set [3] (Rattus norvegicus, 50 μg dosage, injected into chamber daily, day 7-14 treatment, read-out: Mean Collagen content (% of Control) On Day 14) worked out at 80.7%. For the same compound, in data set [3] (wound chamber), the “apoptotic cell numbers (positive staining of apoptotic cells)” value is “dose-dependently increased positive staining of apoptotic cells”. In addition, the “rebound of collagen accumulation after discontinuing administration” value in data set [3] (wound chamber, at higher doses) was “prevented rebound of collagen accumulation”. Also, the healing time result in the data set with dermal punch wound is “increased healing time”. For the same compound, in data set [4], the “Contraction pressure (dP/dt, mm Hg)” value stood at 5770 ± 95.1 mm Hg and the “Relaxation pressure (Min-P, mm Hg)” value stood at 2.7 ± 0.8 mm Hg. Further, the activation of astrocytes result in data set [5] (GFAP staining) is listed as “decreased the activation of actrocytes”. Further, the “collagen deposition in the scar” value in data set [5] (type I collagen staining) was “reduced collagen deposition in the scar”.
